From publication PMC7002685, “Inhibition of vascular calcification by inositol phosphates derivatized with ethylene glycol oligomers” (Nature Communications, 2020)

Tests used:
Format in all cases: binding
[1] = target: T1, Neuropeptide Y Y1 (Homo sapiens, UniProt P25929); experiment: Off-target 257010
T1 construct: purchased Eurofins Panlabs Discovery Services Taiwan, Ltd
Description: (§1) The potential off-target activity of 10 µM (OEG2)2-IP4 was assessed against a panel of 87 enzymes, receptors, or ion channels that are used in standard safety pharmacology screens.
(§2) 3.2. Off-target screening assay
The experiments were conducted by a contract research organization (Eurofins Panlabs Discovery
Services Taiwan, Ltd.) and details on the respective assays can be retrieved via the catalog number
provided in Supplementary Table 11 from the company’s webpage
(§3) (https://www.eurofinsdiscoveryservices.com/). […]

[2] = target: T2, Serotonin (5-Hydroxytryptamine) 5-HT1B (Homo sapiens, UniProt P28222); experiment: Off-target 271230
T2 construct: purchased Eurofins Panlabs Discovery Services Taiwan, Ltd
T2 sequence (P28222 whole entry): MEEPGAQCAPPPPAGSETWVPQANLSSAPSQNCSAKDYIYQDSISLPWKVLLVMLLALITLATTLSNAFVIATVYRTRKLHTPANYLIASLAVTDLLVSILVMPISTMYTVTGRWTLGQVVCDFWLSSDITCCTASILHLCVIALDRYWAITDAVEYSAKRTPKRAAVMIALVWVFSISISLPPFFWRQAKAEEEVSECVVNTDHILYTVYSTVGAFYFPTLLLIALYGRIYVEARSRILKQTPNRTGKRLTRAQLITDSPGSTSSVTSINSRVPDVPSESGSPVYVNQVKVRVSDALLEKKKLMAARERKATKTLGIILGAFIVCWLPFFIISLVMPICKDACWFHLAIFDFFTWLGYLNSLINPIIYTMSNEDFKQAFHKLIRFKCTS
Description: as §1, §2
(§4) The experiments were conducted by a contract research organization (Eurofins Panlabs Discovery Services Taiwan, Ltd.) and details on the respective assays can be retrieved via the catalog number provided in Supplementary Table 11 from the company’s webpage
as §3
(§5) At sacrifice the left tibia of animals of the rat model with dietary adenine/high-phosphate-induced uremia and VC was collected, fixed with 70% v/v EtOH and embedded in methyl methacrylate. The trabecular bone compartment is known to be the most metabolic active i.e. actively re-structured bone compartment in CKD. Therefore, histomorphometric and micro-computed tomography (µCT) analysis of bone was performed on the trabecular compartment. Tibial sections were Goldner-stained for histomorphometric analysis of the proximal metaphysis using the AxioVision Release 4.5 software, as […]
(§6) described previously5. […]

[3] = target: T3, Glutamate, Metabotropic, mGlu5 (Homo sapiens, UniProt P41594); experiment: Off-target 237000
T3 construct: purchased Eurofins Panlabs Discovery Services Taiwan, Ltd
T3 sequence (P41594 21-1212): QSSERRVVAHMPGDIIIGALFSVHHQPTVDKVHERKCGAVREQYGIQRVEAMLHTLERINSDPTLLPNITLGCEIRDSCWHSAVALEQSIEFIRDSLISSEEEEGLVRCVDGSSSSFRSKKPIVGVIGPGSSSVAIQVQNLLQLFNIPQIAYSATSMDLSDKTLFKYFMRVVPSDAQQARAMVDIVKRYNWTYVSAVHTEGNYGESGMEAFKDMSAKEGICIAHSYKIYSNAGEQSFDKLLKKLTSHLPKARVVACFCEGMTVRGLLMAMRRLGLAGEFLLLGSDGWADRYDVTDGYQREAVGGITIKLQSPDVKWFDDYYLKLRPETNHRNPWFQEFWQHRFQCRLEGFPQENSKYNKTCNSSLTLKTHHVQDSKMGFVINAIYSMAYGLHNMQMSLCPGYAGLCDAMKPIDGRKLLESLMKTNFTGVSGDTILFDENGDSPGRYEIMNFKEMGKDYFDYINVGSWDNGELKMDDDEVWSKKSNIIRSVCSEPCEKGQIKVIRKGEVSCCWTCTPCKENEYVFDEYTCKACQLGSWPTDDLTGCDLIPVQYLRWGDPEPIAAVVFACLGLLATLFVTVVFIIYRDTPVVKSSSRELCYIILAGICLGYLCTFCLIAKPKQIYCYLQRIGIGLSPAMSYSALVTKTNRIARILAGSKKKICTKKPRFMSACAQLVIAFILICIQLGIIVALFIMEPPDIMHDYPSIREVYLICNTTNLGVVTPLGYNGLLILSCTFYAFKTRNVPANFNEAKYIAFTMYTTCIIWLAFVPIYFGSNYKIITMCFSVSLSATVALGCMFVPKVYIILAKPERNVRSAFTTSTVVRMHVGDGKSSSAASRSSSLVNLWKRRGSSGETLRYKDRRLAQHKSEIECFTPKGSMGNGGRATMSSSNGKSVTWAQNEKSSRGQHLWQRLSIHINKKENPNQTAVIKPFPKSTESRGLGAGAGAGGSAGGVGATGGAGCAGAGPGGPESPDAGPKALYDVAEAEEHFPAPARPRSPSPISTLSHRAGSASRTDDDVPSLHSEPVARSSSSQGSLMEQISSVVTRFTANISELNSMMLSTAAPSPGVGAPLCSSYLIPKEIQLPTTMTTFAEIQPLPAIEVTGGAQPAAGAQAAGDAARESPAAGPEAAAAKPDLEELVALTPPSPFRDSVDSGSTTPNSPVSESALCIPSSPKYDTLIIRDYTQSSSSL
Description: as §1, §2, §4, §3, §5, §6

T1 sequence (P25929 whole entry): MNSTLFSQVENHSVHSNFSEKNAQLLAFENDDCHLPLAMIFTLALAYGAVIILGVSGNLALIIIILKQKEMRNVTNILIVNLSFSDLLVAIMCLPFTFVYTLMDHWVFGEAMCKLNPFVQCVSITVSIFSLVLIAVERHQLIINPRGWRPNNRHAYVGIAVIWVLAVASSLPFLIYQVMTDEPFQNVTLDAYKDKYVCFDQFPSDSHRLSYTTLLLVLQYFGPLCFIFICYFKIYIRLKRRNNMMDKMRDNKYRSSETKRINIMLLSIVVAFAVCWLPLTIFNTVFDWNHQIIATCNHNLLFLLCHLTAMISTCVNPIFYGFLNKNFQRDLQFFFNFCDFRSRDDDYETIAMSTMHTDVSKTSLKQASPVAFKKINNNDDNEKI

In the case of `COCCOCCO[C@@H]1[C@@H](OP(=O)(O)O)[C@H](OCCOCCOC)[C@@H](OP(=O)(O)O)[C@@H](OP(=O)(O)O)[C@H]1OP(=O)(O)O` [(OEG2)2-IP4, 4,6-Di-O-(methoxy-diethyleneglycol)-myo-inositol-1,2,3,5-tetrakis(phosphate)], the inhibition at 10 µM [1] is reported as -9%, the inhibition at 10 µM [2] is reported as -4% and the inhibition at 10 µM [3] is reported as 24%.
